The subject of data set [1] is S. aureus 1882. Type of data set: cell-based, Staphylococcus aureus. How it is done: (§1) MICs were determined to evaluate the antimicrobial activities of the peptides. The bacteria were inoculated into Mueller‐Hinton broth (MHB) medium in advance and placed in a shaker at 37°C until the logarithmic growth phase. The optical density value at OD600 of the bacterial suspension was adjusted to 0.4, and then diluted 1000 times with sterile MHB medium. Subsequently, the peptides with concentrations of 0.25–128 μM were prepared using bovine serum albumin (BSA) solution (0.2% BSA and 0.01% acetic acid) as the solvent on a 96‐well plate. Different concentrations of peptides and bacterial liquids were mixed in equal volumes. MHB medium containing bacteria was used as a positive control. MHB medium without bacteria was used as a negative control. Then, the mixture of peptides and bacteria was cultured in an incubator at 37°C for 18–24 h. The optical density of each well was measured at 492 nm using a microplate reader. The lowest drug concentration corresponding to a culture mixture with an optical density of less than 0.1 is the MIC of the peptide. The assay was repeated three times in duplicate.

In data set [2] the test system is S. aureus 6538. Type of data set: cell-based, Staphylococcus aureus. As to the method: as §1
In data set [3] the test system is S. epidermidis 12228. Type of data set: cell-based, Staphylococcus epidermidis. As to the method:
as §1

Data set [4] concerns E. coli 25922. It is filed as cell-based, Escherichia coli. How it is done:
as §1

Data set [5] deals with E. coli K88. Type of data set: cell-based, Escherichia coli. The settings on record: microbroth dilution, MHB, 37°C, 18–24 h, OD492 < 0.1; repeated three times in duplicate. How it is done: as §1
Background: In broth dilution the organism is exposed to a series of concentrations in liquid medium.

Data set [6] concerns E. coli K99. It is filed as cell-based, Escherichia coli. The settings on record: microbroth dilution, MHB, 37°C, 18–24 h, OD492 < 0.1; repeated three times in duplicate. As to the method: as §1
Data set [7] relates to P. aeruginosa 15442. Type of data set: cell-based, Pseudomonas aeruginosa. As to the method: as §1
For data set [8], the system named is P. aeruginosa 27853. Type of data set: cell-based, Pseudomonas aeruginosa. As to the method:
as §1

Data set [9] relates to red blood cells. Type of data set: cell-based, pig. How it is done:
A series of parameters such as charge number, hydrophobicity, sequence length, and amphipathicity can affect the hemolytic activity of peptides against red blood cells. The minimal hemolytic concentration (MHC) refers to the minimum concentration that causes hemolysis of 10 % of red blood cells, and is often used to evaluate the hemolytic activity of the peptides. Except for SFK3, the percentage of hemolysis at 128 μM was below 5% for all peptides. Hemolysis of the erythrocytes occurred after incubation with Triton X‐100, with complete fragmentation of the erythrocytes and a bright red color of the reaction system (Figure 2B,C and Table S5).
The hemolytic activity of the peptide was calculated by measuring the level of […] released from mammalian red blood cell lysis induced by the peptide, [44]. Fresh porcine blood was collected from the jugular vein and washed with PBS three times, and red blood cells were collected. A red blood cell suspension of 10% (v/v) concentration was prepared in 10 mM PBS (pH = 7.4). After mixing with different concentrations of peptides in equal volume, they were incubated at 37°C for 2 h. Red blood cells treated with PBS and 0.1% Triton X‐100 were used as negative and positive controls, respectively. The assay was repeated three times. After the sample was centrifuged, the supernatant was transferred to a new 96‐well plate, and the optical density at 570 nm was measured using a microplate reader. Hemolysis was calculated as follows: Hemolytic activity(%)=ODtest sample−ODnegative control/ODpositive control−ODnegative control×100%

The test system of data set [10] is S. aureus ATCC 6538. The data set is described as follows: Drug resistance assay, continuous passaging at sub-MIC. It is filed as cell-based, Staphylococcus aureus. As to the method:
The fold change in the MIC of peptides and […] against S. aureus ATCC 6538 was measured using the continuous passaging method to evaluate the development of drug resistance. The MIC values of the peptide and vancomycin against S. aureus ATCC 6538 were determined according to the above method, and the solutions in the sub‐MIC wells were aspirated and transferred to a fresh MHB medium for the next round of MIC determination. The procedure lasted for 30 days.

7 compounds from article PMC11211671, “Phage‐displayed heptapeptide sequence conjugation significantly improves the specific targeting ability of antimicrobial peptides against Staphylococcus aureus” (mLife, 2024) can be followed below.

Structures are written as SMILES. In brackets after ≈: the same amount, converted by molar mass. Peptide text beside a SMILES is read from it.

In the case of `CC[C@H](C)[C@H](NC(=O)[C@H](CCCNC(=N)N)NC(=O)[C@H](CO)NC(=O)[C@H](CC(C)C)NC(=O)[C@H](Cc1ccccc1)NC(=O)[C@H](Cc1ccccc1)NC(=O)[C@H](Cc1ccccc1)NC(=O)CNC(=O)CNC(=O)CNC(=O)[C@H](CO)NC(=O)[C@H](C)NC(=O)[C@H](CCCNC(=N)N)NC(=O)[C@@H](NC(=O)[C@H](Cc1c[nH]c2ccccc12)NC(=O)[C@H](Cc1ccc(O)cc1)NC(=O)[C@@H](N)CO)C(C)C)C(=O)N[C@@H](Cc1ccccc1)C(=O)N[C@@H](CCCCN)C(=O)N[C@@H](CCCCN)C(=O)N[C@@H](CCCCN)C(N)=O` [SFK3] (H-SYWVRASGGGFFFLSRIFKKK-NH2), the “MIC S. aureus 1882” value in data set [1] was determined as 1 µM (≈ 2.48 µg/mL). Further, the “MIC S. aureus 6538” value in data set [2] was 2 µM (≈ 4.96 µg/mL). Further, in data set [3], the “MIC S. epidermidis 12228” value is above 64 µM. Besides, the “MIC E. coli 25922” value in [4] was above 64 µM. For the same compound, the “MIC E. coli K88” value in data set [5] is 16 µM (≈ 39.7 µg/mL). Besides, in data set [6], the “MIC E. coli K99” value was determined as 16 µM (≈ 39.7 µg/mL). In data set [7], the “MIC P. aeruginosa 15442” value was above 64 µM. For the same compound, the “MIC P. aeruginosa 27853” value in data set [8] is above 64 µM. Besides, in data set [9], the MHC entry is reported as “>128 μM”.
For the compound `CC[C@H](C)[C@H](NC(=O)[C@H](CCCNC(=N)N)NC(=O)[C@H](CO)NC(=O)[C@H](CC(C)C)NC(=O)[C@H](Cc1ccccc1)NC(=O)[C@H](Cc1ccccc1)NC(=O)[C@H](Cc1ccccc1)NC(=O)CNC(=O)CNC(=O)CNC(=O)[C@H](CO)NC(=O)[C@H](C)NC(=O)[C@H](CCCNC(=N)N)NC(=O)[C@@H](NC(=O)[C@H](Cc1c[nH]c2ccccc12)NC(=O)[C@H](Cc1ccc(O)cc1)NC(=O)[C@@H](N)CO)C(C)C)C(=O)N[C@@H](Cc1ccccc1)C(=O)N[C@@H](CCCCN)C(N)=O` [SFK] (H-SYWVRASGGGFFFLSRIFK-NH2), the “MIC S. aureus 1882” value in data set [1] amounted to 2 µM (≈ 4.45 µg/mL). Also, the “MIC S. aureus 6538” value in [2] was determined as 4 µM (≈ 8.9 µg/mL). The “MIC S. epidermidis 12228” value in data set [3] is above 64 µM. In addition, in data set [4], the “MIC E. coli 25922” value is above 64 µM. For the same compound, in [5], the “MIC E. coli K88” value came out at 32 µM (≈ 71.2 µg/mL). Also, the “MIC E. coli K99” value in [6] turned out to be 64 µM (≈ 142 µg/mL). For the same compound, the “MIC P. aeruginosa 15442” value in data set [7] was above 64 µM. Moreover, in data set [8], the “MIC P. aeruginosa 27853” value is above 64 µM. Besides, in data set [9], the MHC result is “>128 μM”.
As for `CC[C@H](C)[C@H](NC(=O)[C@H](CCCNC(=N)N)NC(=O)[C@H](CO)NC(=O)[C@H](CC(C)C)NC(=O)[C@H](Cc1ccccc1)NC(=O)[C@H](Cc1ccccc1)NC(=O)[C@H](Cc1ccccc1)NC(=O)CNC(=O)CNC(=O)CNC(=O)[C@H](CO)NC(=O)[C@H](C)NC(=O)[C@H](CCCNC(=N)N)NC(=O)[C@@H](NC(=O)[C@H](Cc1c[nH]c2ccccc12)NC(=O)[C@H](Cc1ccc(O)cc1)NC(=O)[C@@H](N)CO)C(C)C)C(=O)N[C@@H](Cc1ccccc1)C(=O)N[C@@H](CCCNC(=N)N)C(=O)N[C@@H](CCCNC(=N)N)C(N)=O` [SFR2] (H-SYWVRASGGGFFFLSRIFRR-NH2), in [1], the “MIC S. aureus 1882” value was found to be 1 µM (≈ 2.41 µg/mL). In addition, the “MIC S. aureus 6538” value in data set [2] came out at 4 µM (≈ 9.64 µg/mL). Besides, the “MIC S. epidermidis 12228” value in data set [3] is above 64 µM. For the same compound, in data set [4], the “MIC E. coli 25922” value was above 64 µM. Moreover, in data set [5], the “MIC E. coli K88” value amounted to 32 µM (≈ 77.1 µg/mL). Further, the “MIC E. coli K99” value in [6] was found to be 64 µM (≈ 154 µg/mL). For the same compound, the “MIC P. aeruginosa 15442” value in [7] was above 64 µM. Further, in [8], the “MIC P. aeruginosa 27853” value is above 64 µM. The MHC entry in data set [9] is reported as “>128 μM”.
Take `CC[C@H](C)[C@H](NC(=O)[C@H](CCCNC(=N)N)NC(=O)[C@H](CO)NC(=O)[C@H](CC(C)C)NC(=O)[C@H](Cc1ccccc1)NC(=O)[C@H](Cc1ccccc1)NC(=O)[C@H](Cc1ccccc1)NC(=O)CNC(=O)CNC(=O)CNC(=O)[C@H](CO)NC(=O)[C@H](C)NC(=O)[C@H](CCCNC(=N)N)NC(=O)[C@@H](NC(=O)[C@H](Cc1c[nH]c2ccccc12)NC(=O)[C@H](Cc1ccc(O)cc1)NC(=O)[C@@H](N)CO)C(C)C)C(=O)N[C@@H](Cc1ccccc1)C(=O)N[C@@H](CCCNC(=N)N)C(=O)N[C@@H](CCCNC(=N)N)C(=O)N[C@@H](CCCNC(=N)N)C(N)=O` [SFR3] (H-SYWVRASGGGFFFLSRIFRRR-NH2): the “MIC S. aureus 1882” value in [1] came to 4 µM (≈ 10.3 µg/mL). Besides, the “MIC S. aureus 6538” value in data set [2] is 16 µM (≈ 41 µg/mL). Moreover, the “MIC S. epidermidis 12228” value in [3] is above 64 µM. Further, the “MIC E. coli 25922” value in data set [4] is above 64 µM. The “MIC E. coli K88” value in data set [5] was found to be 32 µM (≈ 82.1 µg/mL). In addition, the “MIC E. coli K99” value in data set [6] is above 64 µM. Further, the “MIC P. aeruginosa 15442” value in data set [7] is above 64 µM. In addition, in [8], the “MIC P. aeruginosa 27853” value is above 64 µM. For the same compound, the MHC result in data set [9] is “>128 μM”.
`CC[C@H](C)[C@H](NC(=O)[C@H](CCCNC(=N)N)NC(=O)[C@H](CO)NC(=O)[C@H](CC(C)C)NC(=O)[C@H](Cc1ccccc1)NC(=O)[C@H](Cc1ccccc1)NC(=O)[C@H](Cc1ccccc1)NC(=O)CNC(=O)CNC(=O)CNC(=O)[C@H](CO)NC(=O)[C@H](C)NC(=O)[C@H](CCCNC(=N)N)NC(=O)[C@@H](NC(=O)[C@H](Cc1c[nH]c2ccccc12)NC(=O)[C@H](Cc1ccc(O)cc1)NC(=O)[C@@H](N)CO)C(C)C)C(=O)N[C@@H](Cc1ccccc1)C(=O)N[C@@H](CCCNC(=N)N)C(N)=O` [SFR] (H-SYWVRASGGGFFFLSRIFR-NH2): the “MIC S. aureus 1882” value in [1] worked out at 2 µM (≈ 4.51 µg/mL). Further, the “MIC S. aureus 6538” value in data set [2] was determined as 2 µM (≈ 4.51 µg/mL). Moreover, the “MIC S. epidermidis 12228” value in data set [3] was above 64 µM. Also, in data set [4], the “MIC E. coli 25922” value was above 64 µM. Besides, the “MIC E. coli K88” value in [5] came out at 32 µM (≈ 72.1 µg/mL). Further, the “MIC E. coli K99” value in [6] is 32 µM (≈ 72.1 µg/mL). Further, in data set [7], the “MIC P. aeruginosa 15442” value was above 64 µM. In addition, in [8], the “MIC P. aeruginosa 27853” value was above 64 µM. Besides, the MHC entry in data set [9] was “>128 μM”.
For `CC[C@H](C)[C@H](NC(=O)[C@H](CCCNC(=N)N)NC(=O)[C@H](CO)NC(=O)[C@H](CC(C)C)NC(=O)[C@H](Cc1ccccc1)NC(=O)[C@H](Cc1ccccc1)NC(=O)[C@H](Cc1ccccc1)NC(=O)CNC(=O)CNC(=O)CNC(=O)[C@H](CO)NC(=O)[C@H](C)NC(=O)[C@H](CCCNC(=N)N)NC(=O)[C@@H](NC(=O)[C@H](Cc1c[nH]c2ccccc12)NC(=O)[C@H](Cc1ccc(O)cc1)NC(=O)[C@@H](N)CO)C(C)C)C(=O)N[C@@H](Cc1ccccc1)C(N)=O` [SF] (H-SYWVRASGGGFFFLSRIF-NH2), the “MIC S. aureus 1882” value in data set [1] stood at 2 µM (≈ 4.19 µg/mL). The “MIC S. aureus 6538” value in [2] worked out at 16 µM (≈ 33.5 µg/mL). The “MIC S. epidermidis 12228” value in [3] is above 64 µM. The “MIC E. coli 25922” value in data set [4] is above 64 µM. In data set [5], the “MIC E. coli K88” value is above 64 µM. Moreover, the “MIC E. coli K99” value in data set [6] was above 64 µM. Further, the “MIC P. aeruginosa 15442” value in data set [7] was above 64 µM. Besides, the “MIC P. aeruginosa 27853” value in [8] was above 64 µM. Also, in data set [9], the MHC result is given as “>128 μM”.
For `O=C(O)c1cn(C2CC2)c2cc(N3CCNCC3)c(F)cc2c1=O` [ciprofloxacin], the “Fold increase of MIC compared with the initial value” in data set [10] (Day 9, sub-MIC passaging) is given as 16 fold. Further, in data set [10] (end of the trial (30 days), sub-MIC passaging), the “MIC relative to the initial value” amounted to 2560 times.
